What was measured:
[1] = molecular target: T1, HCV NS5B (Hepatitis C virus genotype 1b, UniProt Q9WMX2); assay: HCV NS5B RdRp enzyme assay (standard / modified); format: biochemical; settings: HCV RdRp genotype 1b enzyme; read-out: IC50
T1 construct: The protein was expressed with an 18 amino acid C-terminal truncation to enhance the solubility; made in house; host or cells: E. coli BL21 (DE3)
Procedure, shortened: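 NS5B genotype 1b, 18-aa C-terminal truncation, E. coli-expressed; polyA template with biotinylated oligo-dT12 primer, 3H-UTP 0.29 μM, 30° C, SPA read-out in 20 mM Hepes pH 7.5, 2% DMSO. Standard: 28 nM enzyme, 6 nM template, 180 nM primer, 60 min; modified: 14 nM enzyme, 0.2 nM template, 20 nM bead-precaptured primer, 4 h. IC50 from seven concentrations.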

[2] = test system: HCV replicon cells; assay: HCV replicon FRET / luciferase assay; format: cell-based; settings: Hepatitis C virus; HCV replicon cells, FRET or luciferase readout; read-out: EC50
Procedure, shortened: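 Replicon cells + titrated cpds, 37 °C CO2. Alamar blue for cytotoxicity, PBS rinse, then lysis reagent w/ 20 μM FRET peptide (EDANS/DABCYL), 150 mM NaCl; kinetic read ex340/em490, 20 cycles. Alt: Dual-Glo luciferase. EC50 = 50% drop in FRET/luciferase signal after background subtraction.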

T1 sequence (Q9WMX2 2420-2992): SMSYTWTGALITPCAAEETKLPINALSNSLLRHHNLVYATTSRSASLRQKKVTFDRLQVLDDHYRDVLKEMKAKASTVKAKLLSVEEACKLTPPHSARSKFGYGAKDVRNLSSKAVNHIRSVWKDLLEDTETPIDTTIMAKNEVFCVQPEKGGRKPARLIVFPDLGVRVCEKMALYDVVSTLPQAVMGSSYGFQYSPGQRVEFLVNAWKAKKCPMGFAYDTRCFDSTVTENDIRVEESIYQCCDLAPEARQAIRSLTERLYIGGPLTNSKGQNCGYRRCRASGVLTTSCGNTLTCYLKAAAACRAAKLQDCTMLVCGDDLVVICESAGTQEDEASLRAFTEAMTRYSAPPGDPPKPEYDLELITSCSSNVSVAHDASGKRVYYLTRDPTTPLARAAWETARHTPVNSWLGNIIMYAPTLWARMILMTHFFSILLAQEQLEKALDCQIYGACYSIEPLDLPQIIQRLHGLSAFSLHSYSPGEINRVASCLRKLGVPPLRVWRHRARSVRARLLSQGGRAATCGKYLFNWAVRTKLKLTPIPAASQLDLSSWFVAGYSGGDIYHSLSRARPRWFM

Structure (SMILES) | IC50 [1] [µM] | EC50 [2] [µM]
COC[C@@H]1CN(C(=O)c2cnn(C(C)C)c2C2=Cc3cc(OC)ccc3-c3c(C4CCCCC4)c4ccc(C(=O)NS(=O)(=O)CC(C)C)cc4n3C2)CCO1 | 0.001 to 0.5 | 0.001 to 0.5
COc1ccc2c(c1)C=C(c1c(C(=O)N3C[C@@H](C)N(C)[C@@H](C)C3)cnn1C(C)C)Cn1c-2c(C2CCCCC2)c2ccc(C(=O)NS(=O)(=O)CC(C)C)cc21 | 0.001 to 0.5 | 0.001 to 0.5
COC[C@@H]1CN(C(=O)c2cnn(C(C)C)c2C2=Cc3cc(OC)ccc3-c3c(C4CCCCC4)c4ccc(C(=O)NS(=O)(=O)C(C)C)cc4n3C2)CCO1 | 0.001 to 0.5 | 0.001 to 0.5
COC(=O)c1c(C)nn(C)c1C1=Cc2cc(OC)ccc2-c2c(C3CCCCC3)c3ccc(C(=O)O)cc3n2C1 | 0.001 to 0.5 | 0.001 to 0.5
COc1ccc2c(c1)C=C(c1c(C(=O)O)c(C)nn1C)Cn1c-2c(C2CCCCC2)c2ccc(C(=O)NS(=O)(=O)CC(C)C)cc21 | 0.001 to 0.5 | > 0.04
COc1ccc2c(c1)C=C(c1c(C(=O)N3CCOCC3)c(C)nn1C)Cn1c-2c(C2CCCCC2)c2ccc(C(=O)NS(=O)(=O)N(C)C)cc21 | 0.001 to 0.5 | 0.001 to 0.5
COc1ccc2c(c1)C=C(c1c(C(=O)N3CCOCC3)cnn1C1CC1)Cn1c-2c(C2CCCCC2)c2ccc(C(=O)NS(=O)(=O)C(C)C)cc21 | 0.001 to 0.5 | 0.001 to 0.5
COc1ccc2c(c1)C=C(c1c(C(=O)O)c(C)nn1C)Cn1c-2c(C2CCCCC2)c2ccc(C(=O)NS(=O)(=O)C(C)C)cc21 | 0.001 to 0.5 | > 0.5
COc1ccc2c(c1)C=C(c1c(C(=O)N3CCOCC3)c(C)nn1C)Cn1c-2c(C2CCCCC2)c2ccc(C(=O)NS(=O)(=O)CC(C)C)cc21 | 0.001 to 0.5 | 0.001 to 0.5
COc1ccc2c(c1)C=C(c1c(C(=O)N3CCOCC3)c(C)nn1C)Cn1c-2c(C2CCCCC2)c2ccc(C(=O)NS(=O)(=O)C(C)C)cc21 | 0.001 to 0.5 | 0.001 to 0.5
COc1ccc2c(c1)C=C(c1c(C(=O)O)ccn1C(C)C)Cn1c-2c(C2CCCCC2)c2ccc(C(=O)NS(=O)(=O)C(C)C)cc21 | 0.001 to 0.5 | > 0.5
CCCN1CCN(C(=O)c2ccn(C(C)C)c2C2=Cc3cc(OC)ccc3-c3c(C4CCCCC4)c4ccc(C(=O)NS(=O)(=O)C(C)C)cc4n3C2)CC1 | 0.001 to 0.5 | 0.001 to 0.5
COc1ccc2c(c1)C=C(c1c(C(=O)N3C[C@@H](C)O[C@@H](C)C3)ccn1C(C)C)Cn1c-2c(C2CCCCC2)c2ccc(C(=O)NS(=O)(=O)C(C)C)cc21 | 0.001 to 0.5 | 0.001 to 0.5
COc1ccc2c(c1)C=C(c1c(C(=O)N3CCOCC3)ccn1C(C)C)Cn1c-2c(C2CCCCC2)c2ccc(C(=O)NS(=O)(=O)C(C)C)cc21 | 0.001 to 0.5 | 0.001 to 0.5
CCOC(=O)c1ccoc1C1=Cc2cc(OC)ccc2-c2c(C3CCCCC3)c3ccc(C(=O)NS(=O)(=O)C(C)C)cc3n2C1 | 0.001 to 0.5 | > 0.5
CCOC(=O)c1cc[nH]c1C1=Cc2cc(OC)ccc2-c2c(C3CCCCC3)c3ccc(C(=O)NS(=O)(=O)C(C)C)cc3n2C1 | 0.001 to 0.5 | 0.001 to 0.5
COc1ccc2c(c1)C=C(c1c(C(=O)N3CCOCC3)cnn1CC(F)(F)F)Cn1c-2c(C2CCCCC2)c2ccc(C(=O)NS(=O)(=O)C(C)C)cc21 | 0.001 to 0.5 | 0.001 to 0.5
COc1ccc2c(c1)C=C(c1c(C(=O)N3C[C@@H](C)O[C@@H](C)C3)cnn1CC(F)(F)F)Cn1c-2c(C2CCCCC2)c2ccc(C(=O)NS(=O)(=O)C(C)C)cc21 | 0.001 to 0.5 | 0.001 to 0.5
COC[C@@H]1CN(C(=O)c2cnn(CC(F)(F)F)c2C2=Cc3cc(OC)ccc3-c3c(C4CCCCC4)c4ccc(C(=O)NS(=O)(=O)C(C)C)cc4n3C2)CCO1 | 0.001 to 0.5 | 0.001 to 0.5
CCN1C[C@@H]2C[C@H]1CN2C(=O)c1cnn(CC(F)(F)F)c1C1=Cc2cc(OC)ccc2-c2c(C3CCCCC3)c3ccc(C(=O)NS(=O)(=O)C(C)C)cc3n2C1 | 0.001 to 0.5 | 0.001 to 0.5
COc1ccc2c(c1)C=C(c1c(C(=O)N3C[C@@H](C)N(C)[C@@H](C)C3)cnn1CC(F)(F)F)Cn1c-2c(C2CCCCC2)c2ccc(C(=O)NS(=O)(=O)C(C)C)cc21 | 0.001 to 0.5 | 0.001 to 0.5
COc1ccc2c(c1)C=C(c1c(C(=O)N3C[C@@H](C)O[C@@H](C)C3)c(C)nn1C)Cn1c-2c(C2CCCCC2)c2ccc(C(=O)NS(=O)(=O)C(C)C)cc21 | 0.001 to 0.5 | 0.001 to 0.5
COc1ccc2c(c1)C=C(c1c(C(=O)N3CCOCC3)c(C(F)(F)F)nn1C)Cn1c-2c(C2CCCCC2)c2ccc(C(=O)NS(=O)(=O)C(C)C)cc21 | < 0.02 | 0.001 to 0.5
COc1ccc2c(c1)C=C(c1c(C(=O)N3C[C@@H](C)O[C@@H](C)C3)c(C(F)(F)F)nn1C)Cn1c-2c(C2CCCCC2)c2ccc(C(=O)NS(=O)(=O)C(C)C)cc21 | < 0.02 | 0.001 to 0.5
COc1ccc2c(c1)C=C(c1c(C(=O)N3C[C@@H](C)N(C)[C@@H](C)C3)c(C(F)(F)F)nn1C)Cn1c-2c(C2CCCCC2)c2ccc(C(=O)NS(=O)(=O)C(C)C)cc21 | 0.001 to 0.5 | 0.001 to 0.5
